Assay [1] addresses Dual specificity tyrosine-phosphorylation-regulated kinase 1A (Homo sapiens, UniProt Q13627). In words: Selectivity interaction (Kinase panel (Z-LYTE Assay)) EUB0001632a DYRK1A. Particulars: at 10 µM.
Assay [2] concerns the target Serine/threonine-protein kinase PAK 3 (Homo sapiens) (UniProt O75914). Briefly: Selectivity interaction (Kinase panel (Z-LYTE Assay)) EUB0001632a PAK3. Particulars: at 10 µM.
For assay [3], the target named is Calcium/calmodulin-dependent protein kinase type II subunit beta (Homo sapiens) (UniProt Q13554). Conditions: at 10 µM.
Sequence of Calcium/calmodulin-dependent protein kinase type II subunit beta (Homo sapiens) (Q13554 whole entry): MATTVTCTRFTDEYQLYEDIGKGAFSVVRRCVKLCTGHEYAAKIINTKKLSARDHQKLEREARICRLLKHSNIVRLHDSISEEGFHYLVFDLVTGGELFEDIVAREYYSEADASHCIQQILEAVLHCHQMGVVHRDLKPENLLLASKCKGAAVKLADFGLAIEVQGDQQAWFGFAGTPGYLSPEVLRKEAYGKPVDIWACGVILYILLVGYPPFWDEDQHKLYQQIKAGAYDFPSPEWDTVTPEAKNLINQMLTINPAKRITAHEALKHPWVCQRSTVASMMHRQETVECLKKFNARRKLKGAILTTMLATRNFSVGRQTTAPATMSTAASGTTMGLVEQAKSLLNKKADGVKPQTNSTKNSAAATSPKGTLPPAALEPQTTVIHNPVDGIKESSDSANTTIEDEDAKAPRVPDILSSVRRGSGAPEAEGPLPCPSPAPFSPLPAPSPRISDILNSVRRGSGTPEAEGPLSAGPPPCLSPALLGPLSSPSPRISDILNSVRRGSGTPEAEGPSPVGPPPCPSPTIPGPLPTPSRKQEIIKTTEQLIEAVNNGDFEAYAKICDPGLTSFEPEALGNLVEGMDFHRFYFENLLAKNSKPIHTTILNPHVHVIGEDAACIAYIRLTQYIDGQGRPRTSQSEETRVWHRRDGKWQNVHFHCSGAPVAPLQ
Assay [4] concerns the target T1, Ephrin type-A receptor 3 (Homo sapiens) (UniProt P29320).
T1 sequence (whole entry): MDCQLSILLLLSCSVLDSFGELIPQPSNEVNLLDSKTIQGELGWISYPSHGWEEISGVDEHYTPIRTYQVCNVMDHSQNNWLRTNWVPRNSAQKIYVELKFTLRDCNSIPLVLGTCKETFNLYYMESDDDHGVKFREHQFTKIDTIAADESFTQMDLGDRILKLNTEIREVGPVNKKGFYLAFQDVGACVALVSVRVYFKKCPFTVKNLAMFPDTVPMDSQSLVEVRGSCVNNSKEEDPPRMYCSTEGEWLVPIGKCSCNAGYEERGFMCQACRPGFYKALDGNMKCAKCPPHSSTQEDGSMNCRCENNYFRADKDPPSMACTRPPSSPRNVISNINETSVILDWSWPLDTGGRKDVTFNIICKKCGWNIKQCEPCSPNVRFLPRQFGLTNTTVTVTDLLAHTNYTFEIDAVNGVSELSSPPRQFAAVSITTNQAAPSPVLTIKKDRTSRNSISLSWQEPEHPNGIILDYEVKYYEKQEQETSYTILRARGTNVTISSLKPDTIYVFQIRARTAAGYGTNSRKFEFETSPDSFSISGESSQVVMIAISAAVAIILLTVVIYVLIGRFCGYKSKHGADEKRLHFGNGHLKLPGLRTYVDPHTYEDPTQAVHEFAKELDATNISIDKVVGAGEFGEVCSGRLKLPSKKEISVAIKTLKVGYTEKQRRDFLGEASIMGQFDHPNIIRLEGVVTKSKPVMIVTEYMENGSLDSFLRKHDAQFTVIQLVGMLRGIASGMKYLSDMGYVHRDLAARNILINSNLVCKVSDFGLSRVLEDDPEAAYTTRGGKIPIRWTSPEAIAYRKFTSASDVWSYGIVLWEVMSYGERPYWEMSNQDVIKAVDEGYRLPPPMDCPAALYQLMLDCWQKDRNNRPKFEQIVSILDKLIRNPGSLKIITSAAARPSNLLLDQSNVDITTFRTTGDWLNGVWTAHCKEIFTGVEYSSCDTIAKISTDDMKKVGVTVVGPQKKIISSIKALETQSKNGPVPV
Briefly: Selectivity interaction (KinomeScan (DiscoverX)) EUB0000666a EPHA3. Conditions: at 10 µM.

In assay [5] the target is Activated CDC42 kinase 1 (Homo sapiens, UniProt Q07912). Briefly: Selectivity interaction (KinomeScan (DiscoverX)) EUB0000229b TNK2. Conditions: at 10 µM.
Sequence of Activated CDC42 kinase 1 (Q07912 whole entry, looked up): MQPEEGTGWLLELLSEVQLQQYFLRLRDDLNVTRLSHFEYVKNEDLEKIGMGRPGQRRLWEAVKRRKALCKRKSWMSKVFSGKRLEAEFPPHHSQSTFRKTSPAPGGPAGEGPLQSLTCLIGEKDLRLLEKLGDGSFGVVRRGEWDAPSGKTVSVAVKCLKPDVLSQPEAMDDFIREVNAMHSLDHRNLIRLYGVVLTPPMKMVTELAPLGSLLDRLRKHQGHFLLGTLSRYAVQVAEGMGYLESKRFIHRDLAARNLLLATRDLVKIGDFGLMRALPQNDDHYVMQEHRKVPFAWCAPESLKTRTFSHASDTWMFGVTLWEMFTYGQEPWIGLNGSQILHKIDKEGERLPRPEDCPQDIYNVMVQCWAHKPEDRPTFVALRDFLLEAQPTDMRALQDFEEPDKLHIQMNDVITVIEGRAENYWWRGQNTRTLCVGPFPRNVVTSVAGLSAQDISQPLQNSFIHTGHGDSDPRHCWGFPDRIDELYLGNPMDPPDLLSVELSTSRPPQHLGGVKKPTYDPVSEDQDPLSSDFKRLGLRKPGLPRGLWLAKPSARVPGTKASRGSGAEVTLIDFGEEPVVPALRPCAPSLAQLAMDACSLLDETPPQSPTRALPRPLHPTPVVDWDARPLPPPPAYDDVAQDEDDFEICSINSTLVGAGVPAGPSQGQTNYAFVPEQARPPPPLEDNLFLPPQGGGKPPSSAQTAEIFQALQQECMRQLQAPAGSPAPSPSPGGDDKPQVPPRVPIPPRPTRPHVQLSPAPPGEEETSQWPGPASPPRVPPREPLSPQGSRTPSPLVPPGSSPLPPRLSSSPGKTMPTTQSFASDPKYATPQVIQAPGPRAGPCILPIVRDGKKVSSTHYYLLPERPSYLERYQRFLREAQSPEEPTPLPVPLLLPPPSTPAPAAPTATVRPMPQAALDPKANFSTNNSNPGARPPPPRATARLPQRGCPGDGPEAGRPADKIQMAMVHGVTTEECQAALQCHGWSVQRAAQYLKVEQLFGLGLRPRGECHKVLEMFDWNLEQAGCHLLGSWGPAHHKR
Assay [6] addresses Mitogen-activated protein kinase 14 (Homo sapiens, UniProt Q16539). Briefly: Selectivity interaction (ActivX KiNativ screen (ex vivo kinase selectivity in human PBMCs)) EUB0001619a MAPK14. Conditions: PBMC, at 1 µM. It is filed as cell-based.
For assay [7], the target named is Serine/threonine-protein kinase 10 (Homo sapiens) (UniProt O94804). Briefly: Selectivity interaction (ActivX KiNativ screen (ex vivo kinase selectivity in human PBMCs)) EUB0001619a STK10. It is filed as cell-based. Conditions: PBMC, at 1 µM.
Sequence of Serine/threonine-protein kinase 10 (Homo sapiens) (O94804 whole entry, looked up): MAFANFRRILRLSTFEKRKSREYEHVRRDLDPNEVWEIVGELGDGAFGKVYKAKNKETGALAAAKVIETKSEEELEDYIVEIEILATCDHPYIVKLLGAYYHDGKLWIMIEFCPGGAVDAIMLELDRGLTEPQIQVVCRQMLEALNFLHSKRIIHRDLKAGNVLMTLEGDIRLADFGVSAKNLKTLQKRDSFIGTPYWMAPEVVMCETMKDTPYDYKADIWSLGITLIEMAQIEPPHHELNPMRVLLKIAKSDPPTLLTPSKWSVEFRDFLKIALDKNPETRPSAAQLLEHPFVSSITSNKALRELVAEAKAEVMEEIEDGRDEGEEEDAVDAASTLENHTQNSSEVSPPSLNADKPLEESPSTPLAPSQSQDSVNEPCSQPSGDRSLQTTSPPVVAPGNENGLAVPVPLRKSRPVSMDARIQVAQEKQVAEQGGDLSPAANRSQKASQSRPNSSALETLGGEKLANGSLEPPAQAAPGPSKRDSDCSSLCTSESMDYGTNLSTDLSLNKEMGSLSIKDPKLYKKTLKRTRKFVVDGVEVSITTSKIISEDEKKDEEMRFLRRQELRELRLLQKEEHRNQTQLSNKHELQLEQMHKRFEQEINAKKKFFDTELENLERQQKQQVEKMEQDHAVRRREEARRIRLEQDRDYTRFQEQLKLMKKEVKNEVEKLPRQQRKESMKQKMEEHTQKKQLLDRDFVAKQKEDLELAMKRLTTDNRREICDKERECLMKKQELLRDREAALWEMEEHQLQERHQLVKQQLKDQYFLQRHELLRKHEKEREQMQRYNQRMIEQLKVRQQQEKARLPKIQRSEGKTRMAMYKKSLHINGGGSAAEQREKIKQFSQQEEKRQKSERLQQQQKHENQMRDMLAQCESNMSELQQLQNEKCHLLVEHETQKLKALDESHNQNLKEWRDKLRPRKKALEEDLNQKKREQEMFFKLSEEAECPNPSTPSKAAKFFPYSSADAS
In assay [8] the target is Tyrosine-protein kinase Lyn (Homo sapiens, UniProt P07948). In words: Selectivity interaction (ActivX KiNativ screen (kinase selectivity in THP-1 cell lysates)) EUB0000639a LYN. It is filed as subcellular. Particulars: lysate, at 0.04 µM.
Sequence of Tyrosine-protein kinase Lyn (P07948 2-512 limits assumed): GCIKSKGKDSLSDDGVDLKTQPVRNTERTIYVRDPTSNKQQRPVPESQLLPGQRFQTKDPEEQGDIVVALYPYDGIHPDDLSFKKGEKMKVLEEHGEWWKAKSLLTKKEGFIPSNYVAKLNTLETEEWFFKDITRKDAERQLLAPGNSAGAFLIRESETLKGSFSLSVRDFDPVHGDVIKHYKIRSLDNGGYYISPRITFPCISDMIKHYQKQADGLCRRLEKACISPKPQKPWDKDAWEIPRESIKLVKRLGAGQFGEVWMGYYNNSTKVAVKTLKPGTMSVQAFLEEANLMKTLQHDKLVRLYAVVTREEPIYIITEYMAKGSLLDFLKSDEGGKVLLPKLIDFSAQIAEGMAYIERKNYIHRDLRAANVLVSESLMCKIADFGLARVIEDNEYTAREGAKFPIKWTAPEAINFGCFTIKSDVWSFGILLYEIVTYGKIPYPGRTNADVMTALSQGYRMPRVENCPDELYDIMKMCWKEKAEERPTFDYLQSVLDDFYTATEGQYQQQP
Assay [9] concerns the target T2, Tyrosine-protein kinase Tec (Homo sapiens) (UniProt P42680).
T2 sequence (whole entry): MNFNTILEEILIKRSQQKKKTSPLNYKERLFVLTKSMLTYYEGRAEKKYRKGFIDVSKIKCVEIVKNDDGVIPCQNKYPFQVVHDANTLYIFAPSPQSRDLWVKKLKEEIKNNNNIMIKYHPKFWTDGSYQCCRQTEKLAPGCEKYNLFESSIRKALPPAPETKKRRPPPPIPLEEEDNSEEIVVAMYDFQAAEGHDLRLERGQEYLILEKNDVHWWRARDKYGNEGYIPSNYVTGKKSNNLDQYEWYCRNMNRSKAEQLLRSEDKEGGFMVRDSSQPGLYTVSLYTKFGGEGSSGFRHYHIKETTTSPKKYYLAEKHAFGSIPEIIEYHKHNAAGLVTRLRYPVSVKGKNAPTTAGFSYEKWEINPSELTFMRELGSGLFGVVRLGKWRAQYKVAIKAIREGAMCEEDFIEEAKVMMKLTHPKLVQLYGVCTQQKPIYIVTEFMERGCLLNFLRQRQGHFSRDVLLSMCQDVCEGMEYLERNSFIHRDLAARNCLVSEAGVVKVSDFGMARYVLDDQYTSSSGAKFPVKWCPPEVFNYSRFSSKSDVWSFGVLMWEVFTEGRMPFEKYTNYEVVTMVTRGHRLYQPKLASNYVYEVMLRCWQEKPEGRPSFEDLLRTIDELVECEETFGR
Briefly: Selectivity interaction (Kinase panel (Invitrogen)) EUB0000639a TEC. Conditions: at 200 nM.

The subject of assay [10] is Mast/stem cell growth factor receptor Kit (Homo sapiens), P10721 [D816V]. Conditions: at 10 µM.
In assay [11] the target is Tyrosine-protein kinase Yes (Homo sapiens) (UniProt P07947). Briefly: Selectivity interaction (KinomeScan (DiscoverX)) EUB0000595a YES1. Particulars: at 10 µM.
Sequence of Tyrosine-protein kinase Yes (Homo sapiens) (P07947 2-543 limits assumed): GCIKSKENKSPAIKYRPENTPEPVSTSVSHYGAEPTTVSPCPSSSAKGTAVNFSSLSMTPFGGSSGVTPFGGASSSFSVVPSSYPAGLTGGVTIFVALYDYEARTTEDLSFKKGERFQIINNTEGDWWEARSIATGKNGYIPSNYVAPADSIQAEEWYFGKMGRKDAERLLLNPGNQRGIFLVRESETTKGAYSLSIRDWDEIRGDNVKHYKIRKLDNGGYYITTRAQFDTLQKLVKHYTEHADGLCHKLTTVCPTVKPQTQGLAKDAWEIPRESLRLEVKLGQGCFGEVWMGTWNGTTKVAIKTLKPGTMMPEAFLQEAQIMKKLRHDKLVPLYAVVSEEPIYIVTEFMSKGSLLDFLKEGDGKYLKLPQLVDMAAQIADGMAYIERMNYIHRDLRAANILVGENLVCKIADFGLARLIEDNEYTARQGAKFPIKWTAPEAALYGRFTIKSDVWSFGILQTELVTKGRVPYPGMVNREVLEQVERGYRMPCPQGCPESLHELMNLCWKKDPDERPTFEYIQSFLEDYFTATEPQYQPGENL

The structures appear in SMILES notation.

Sequence of Serine/threonine-protein kinase PAK 3 (Homo sapiens) (O75914 whole entry, looked up): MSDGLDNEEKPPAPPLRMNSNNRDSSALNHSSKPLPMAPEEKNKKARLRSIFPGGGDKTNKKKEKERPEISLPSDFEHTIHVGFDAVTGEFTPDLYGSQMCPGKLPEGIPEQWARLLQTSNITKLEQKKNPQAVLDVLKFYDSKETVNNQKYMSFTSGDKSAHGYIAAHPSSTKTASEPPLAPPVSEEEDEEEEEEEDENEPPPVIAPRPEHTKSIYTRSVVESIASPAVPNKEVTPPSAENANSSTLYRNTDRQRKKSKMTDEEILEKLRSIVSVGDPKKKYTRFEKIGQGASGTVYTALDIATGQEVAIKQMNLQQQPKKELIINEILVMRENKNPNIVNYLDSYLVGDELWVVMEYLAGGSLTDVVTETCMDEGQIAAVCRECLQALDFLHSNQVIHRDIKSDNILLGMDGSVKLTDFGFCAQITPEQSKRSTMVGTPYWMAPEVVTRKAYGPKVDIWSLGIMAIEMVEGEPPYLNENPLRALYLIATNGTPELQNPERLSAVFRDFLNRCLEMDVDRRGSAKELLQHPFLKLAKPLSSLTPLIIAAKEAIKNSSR
Sequence of Mitogen-activated protein kinase 14 (Q16539 whole entry): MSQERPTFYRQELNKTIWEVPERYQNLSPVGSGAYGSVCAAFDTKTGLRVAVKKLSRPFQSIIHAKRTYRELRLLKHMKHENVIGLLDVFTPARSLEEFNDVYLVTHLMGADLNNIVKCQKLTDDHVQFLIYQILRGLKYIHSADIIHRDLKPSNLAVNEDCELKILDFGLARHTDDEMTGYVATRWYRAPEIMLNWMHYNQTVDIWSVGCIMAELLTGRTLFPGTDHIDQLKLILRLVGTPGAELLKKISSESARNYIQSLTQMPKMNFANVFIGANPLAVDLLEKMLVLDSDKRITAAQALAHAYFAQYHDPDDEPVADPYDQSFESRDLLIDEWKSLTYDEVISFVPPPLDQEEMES

Regarding `Cn1cc(-n2cnc3c(NCc4nc5cc(Cl)c(Cl)cc5[nH]4)nc(N4CCOCC4)nc32)cn1`, the % of control was -3.48% in assay [1] and -20.7% in assay [2].
In the case of `Cc1cc([C@@H](C)Nc2ccccc2C(=O)O)c2nc(N3CCOCC3)cc(=O)n2c1` [AZD-6482], in [3], the % of control came out at 83%.
With `O=C(NOC[C@H](O)CO)c1ccc(F)c(F)c1Nc1ccc(I)cc1F`, the % of control in assay [4] turned out to be 100%.
The compound `COc1cc(N(C)c2ccnc3ccc(C(F)(F)F)cc23)cc(OC)c1OC` displayed a % binding in assay [5] of 89%.
Regarding `N#Cc1cccc(-c2c[nH]c3ncnc(N4CCOCC4)c23)c1`, the % of inhibition in [6] is -15%; in [7] it was 77%.
In the case of `CC[C@@H]1[C@H](F)C(=O)N[C@@H]1COc1nccc2cc(C(N)=O)c(OC)cc12` [ZIMLOVISERTIB], the % of inhibition in [8] is -15.2%; in assay [9], -4.01%.
Take `CCN(CC)CCCCNc1ncc2cc(-c3cc(OC)cc(OC)c3)c(NC(=O)NC(C)(C)C)nc2n1`: the % of control in assay [10] stood at 100%.
As to `COCC(=O)NC/C=C/c1ccc2ncnc(Nc3ccc(Oc4ccc(C)nc4)c(C)c3)c2c1` [CP-724714], the % of control in assay [11] amounted to 65%.
